One substance from patent US8778889B2, “Antimicrobial decapeptide oral hygiene treatment” (The United States of America as represented by the …, priority 2003, dated 2014) can be followed below.

Data set [1] deals with biofilms grown on saliva-coated HA surfaces. As to the kind of experiment: Live/Dead BacLight staining with confocal laser scanning microscopy of treated biofilms. The data set is classed as cell-based, human salivary bacteria. The note with it: 66 h-old biofilms; KSL 200 μg/ml, Bzl 0.001%, CHX 0.12%. As for the experimental part: (A) Effect of KSL on intact versus disrupted 45 h biofilms formed on saliva-coated HA disks by salivary bacteria using the in vitro plaque assay. A Mann-Whitney test was used for comparison of log reductions in CFU between the experimental groups (KSL-treated intact or disrupted biofilms) with the control groups (dH2O-treated intact or disrupted biofilms). The single asterisk represents a statistically significant difference between KSL and dH2O-treated intact biofilms (p<0.05). Likewise, double asterisks represent a statistically significant difference between KSL and dH2O-treated disrupted biofilms (p<0.01). […] (B) Effect of benzalkonium chloride in promoting the bactericidal activity of KSL against 66 h-old intact oral biofilms formed on saliva-coated HA disks using the in vitro plaque system. A Kruskal-Wallis test was used to compare log reductions in CFU among various treatment groups including the control group (dH2O-treated). The single asterisk represents a statistically significant difference between the combined treatment of KSL and benzalkonium chloride (Bzl) and dH2O (p<0.001), KSL (p<0.01), or Bzl (p<0.01)-treated intact biofilms. Double asterisks represent a statistically significant difference between CHX and dH2O (p<0.001) or Bzl (P<0.05)-treated intact biofilms. […] No significant difference in viability counts was observed between CHX-treated versus the combined use of KSL and Bzl. For (A) and (B), the data represent the determinations of one of three separate experiments, each performed in quadruplicate. Bars represent standard deviations. (C) Confocal images of control and treated biofilms grown on saliva-coated HA surfaces. Live/Dead BacLight™ Viability kit (Molecular Probes, Eugene, Oreg.) was used to assess the viability of biofilm cells exposed to different treatments. […] An excitation wavelength of 488 nm was used and the fluorescence light emitted was collected by two separate emission filters, 500-530 nm (SYTO 9, live), and 650-710 nm (propidium iodide, dead). […]

The nature of data set [2]: Interaction (adsorption) with hydroxyapatite discs in artificial saliva. Format: physicochemical. The note with it: KSL 0.5 mg/ml, 8 untreated HA discs, 37° C. On the procedure: Affinity of KSL to tooth-like materials was assessed by allowing the KSL to interact with HA discs (Size: 0.38″ diameter×0.06-0.08″ thick) in artificial saliva at 37° C. To simulate the tooth surface, the HA discs were pretreated in filtered human saliva for 2 hours (4 HA discs/4 mL of human saliva). Whole human saliva was collected from three healthy male donors in the morning prior to breakfast. After collection, the saliva was immediately centrifuged at 12,000 rpm for 20 min and the supernatant was filter through a 0.45 μm membrane filter. The HA discs, after conditioning with human saliva, were rinsed with artificial saliva and added to 4 ml of KSL solutions (0.5 mg/ml in artificial saliva) at 37° C. As a control, untreated HA discs were directly added to KSL solutions at 37° C. The sample vials were mounted on a rotary wheel with vertical rotation at a speed of 18 cycles/min. Samples were removed at predetermined times, centrifuged and the supernatants were analyzed by RP-HPLC.

Data set [3] deals with oral biofilms formed by salivary bacteria on saliva-conditioned Ge surfaces. Kind of data set: Dual flow cell oral biofilm development (DIC microscopy). Format: cell-based, human salivary bacteria. The source says: The dual flow cell system used in this study was modified from the chemostat flow cells of Herles et al. (Herles et al., 1994) and constructed according to our design and specifications by BioSurface Technologies (Bozeman, Mont.) (FIG. 1). The flow cell consisted of two compartments, each containing a polycarbonate flow chamber with three recesses to hold the Ge disks (10 mm in diameter and 1.8 mm in thickness) upon which biofilms were formed. Ge disks provided reflective surfaces that allowed the visualization of unstained biofilms using differential interference contrast (DIC) microscopy.
To form biofilms, Ge disks (Mindrum, Rancho Cucamonga, Calif.) in the dual flow cell were conditioned for one hour with sterile 50% human whole saliva. Isolated salivary bacteria, adjusted to approximately 1.0×10^7 cells/ml in 50% saliva (total, 1.5 ml), were injected into the flow chambers. After two hours of initial adherence of bacteria onto disk surfaces, the flow of culture medium (20% Todd-Hewitt broth) was started at a rate of 0.2 ml/min (Foster et al., 2004). The flow rate employed generated a shear rate of approximately 9.65 s^−1 on the substrate surface, and is compatible with the fluid flow in the oral cavity (Bakker et al., 2003).
To evaluate the effects of KSL in controlling the development and maturation of oral biofilms, surface adhered cells (after initial colonization) were perfused continuously with KSL-free or KSL-containing media (KSL at 10 or 50 μg/ml). Alternatively, biofilms at different stages of maturation (i.e., 4, or 6 h after inoculation) were pulse-treated using an injection pump at 0.2 ml/min with 50 μg/ml KSL in 20% THB or the control medium for 30 min at 2 hr intervals. Direct comparison of the effects of antimicrobials on the growth of biofilms between treated versus untreated was made in real-time by DIC microscopy.

Ends that are not written are not given here.

With “KKVVFKVKFK-NH2 [KSL, Lys-Lys-Val-Val-Phe-Lys-Val-Lys-Phe-Lys-NH2]”, the “viability of biofilm cells by live/dead staining” value in data set [1] was “less impact on the viability of biofilm cells”. Besides, the “KSL adsorbed to HA discs” value in data set [2] is “approximately 20%”. The “time to adsorption equilibrium” value in data set [2] is at most 5 min. Also, the “effect on oral biofilm development” value was “partially effective in inhibiting biofilm formation” in data set [3] (continuous perfusion, KSL at 10 μg/ml); “disrupted biofilm development” in data set [3] (continuous perfusion, KSL at 50 μg/ml); “inhibited biofilm formation” in data set [3] (pulsed treatment (30 min every 2 h, 50 μg/ml) starting 4 h after inoculation); “failed to inhibit the development of biofilm structures” in data set [3] (pulsed treatment (30 min every 2 h, 50 μg/ml) starting 6 h after inoculation).
